Laboratory results as given in patent US11931424B2, “Combination MCL-1 inhibitors with anti-body drug conjugates” (Gilead Sciences, Inc., priority 2021, dated 2024).

Tested on: panel of breast cancer cell lines
Experiment: Compound A with targeted agents and chemotherapies, 72-hour in vitro proliferation assays
Format: cell-based
Details: compound A × partner, 72-hour proliferation

Structure (SMILES): CCOc1cc2ncc(C#N)c(Nc3ccc(OCc4ccccn4)c(Cl)c3)c2cc1NC(=O)/C=C/CN(C)C [Neratinib]
- Best CI (AU565 cell line): 0.40
- Bliss Volume (AU565 cell line): 18.09
- HSA volume (AU565 cell line): 11.74
- Loewe Volume (AU565 cell line): 10.72
- Synergy Score (AU565 cell line): 19.43
- Best CI (BT-20 cell line): 0.05
- Bliss Volume (BT-20 cell line): 38.29
- HSA volume (BT-20 cell line): 28.06
- Loewe Volume (BT-20 cell line): 28.33
- Synergy Score (BT-20 cell line): 58.64
- Best CI (CAL-51 cell line): 0.29
- Bliss Volume (CAL-51 cell line): 6.99
- HSA volume (CAL-51 cell line): 4.62
- Loewe Volume (CAL-51 cell line): 6.71
- Synergy Score (CAL-51 cell line): 14.86
- Best CI (CAL-85-1 cell line): 0.13
- Bliss Volume (CAL-85-1 cell line): 22.07
- HSA volume (CAL-85-1 cell line): 18.05
- Loewe Volume (CAL-85-1 cell line): 16.51
- Synergy Score (CAL-85-1 cell line): 28.31
- Best CI (CAL-120 cell line): 0.82
- Bliss Volume (CAL-120 cell line): 4.43
- HSA volume (CAL-120 cell line): 4.29
- Loewe Volume (CAL-120 cell line): 3.99
- Synergy Score (CAL-120 cell line): 11.20
- Best CI (CAL-148 cell line): 0.21
- Bliss Volume (CAL-148 cell line): 18.81
- HSA volume (CAL-148 cell line): 13.97
- Loewe Volume (CAL-148 cell line): 17.68
- Synergy Score (CAL-148 cell line): 29.60
- Best CI (CAMA-1 cell line): 0.40
- Bliss Volume (CAMA-1 cell line): 26.19
- HSA volume (CAMA-1 cell line): 5.28
- Loewe Volume (CAMA-1 cell line): 3.50
- Synergy Score (CAMA-1 cell line): 6.88
- Best CI (DU-4475 cell line): 0.43
- Bliss Volume (DU-4475 cell line): 10.55
- HSA volume (DU-4475 cell line): 1.06
- Loewe Volume (DU-4475 cell line): 0.39
- Synergy Score (DU-4475 cell line): 2.06
- Best CI (EVSA-T cell line): 0.51
- Bliss Volume (EVSA-T cell line): 2.50
- HSA volume (EVSA-T cell line): 1.44
- Loewe Volume (EVSA-T cell line): 1.31
- Synergy Score (EVSA-T cell line): 1.92
- Best CI (HCC38): 1.06
- Bliss Volume (HCC38): 17.98
- HSA volume (HCC38): 8.02
- Loewe Volume (HCC38): 11.04
- Synergy Score (HCC38): 11.55
- Best CI (HCC70): 0.09
- Bliss Volume (HCC70): 36.07
- HSA volume (HCC70): 21.70
- Loewe Volume (HCC70): 21.51
- Synergy Score (HCC70): 42.47
- Best CI (HCC1143): 0.47
- Bliss Volume (HCC1143): 14.84
- HSA volume (HCC1143): 7.69
- Loewe Volume (HCC1143): 8.83
- Synergy Score (HCC1143): 12.39
- Best CI (HCC1569): 0.76
- Bliss Volume (HCC1569): 17.69
- HSA volume (HCC1569): 11.68
- Loewe Volume (HCC1569): 14.89
- Synergy Score (HCC1569): 23.33
- Best CI (HCC1806): 0.15
- Bliss Volume (HCC1806): 25.34
- HSA volume (HCC1806): 19.39
- Loewe Volume (HCC1806): 21.61
- Synergy Score (HCC1806): 37.41
- Best CI (HCC1937): 0.84
- Bliss Volume (HCC1937): 13.93
- HSA volume (HCC1937): 5.77
- Loewe Volume (HCC1937): 10.37
- Synergy Score (HCC1937): 13.10
- Best CI (HCC1954): 0.06
- Bliss Volume (HCC1954): 37.73
- HSA volume (HCC1954): 19.30
- Loewe Volume (HCC1954): 19.31
- Synergy Score (HCC1954): 38.93
- Best CI (HCC2218): 0.05
- Bliss Volume (HCC2218): 30.06
- HSA volume (HCC2218): 10.84
- Loewe Volume (HCC2218): 8.50
- Synergy Score (HCC2218): 20.85
- Best CI (HDQ-P1): 0.57
- Bliss Volume (HDQ-P1): 10.17
- HSA volume (HDQ-P1): 9.28
- Loewe Volume (HDQ-P1): 9.93
- Synergy Score (HDQ-P1): 17.02
- Best CI (HMC-1-8): 0.24
- Bliss Volume (HMC-1-8): 19.74
- HSA volume (HMC-1-8): 14.99
- Loewe Volume (HMC-1-8): 15.17
- Synergy Score (HMC-1-8): 30.76
- Best CI (JIMT-1): 0.18
- Bliss Volume (JIMT-1): 10.52
- HSA volume (JIMT-1): 11.00
- Loewe Volume (JIMT-1): 11.11
- Synergy Score (JIMT-1): 17.62

Structure (SMILES): O=C(c1cc(Cc2n[nH]c(=O)c3ccccc23)ccc1F)N1CCN(C(=O)C2CC2)CC1 [Olaparib]
- Best CI (AU565 cell line): 0.75
- Bliss Volume (AU565 cell line): 2.11
- HSA volume (AU565 cell line): −1.92
- Loewe Volume (AU565 cell line): 0.98
- Synergy Score (AU565 cell line): 2.27
- Best CI (BT-20 cell line): 0.88
- Bliss Volume (BT-20 cell line): 0.80
- HSA volume (BT-20 cell line): 0.38
- Loewe Volume (BT-20 cell line): 0.63
- Synergy Score (BT-20 cell line): 4.78
- Best CI (CAL-51 cell line): 0.55
- Bliss Volume (CAL-51 cell line): 1.50
- HSA volume (CAL-51 cell line): 1.03
- Loewe Volume (CAL-51 cell line): 2.21
- Synergy Score (CAL-51 cell line): 1.89
- Best CI (CAL-85-1 cell line): 0.67
- Bliss Volume (CAL-85-1 cell line): 4.52
- HSA volume (CAL-85-1 cell line): 5.66
- Loewe Volume (CAL-85-1 cell line): 6.67
- Synergy Score (CAL-85-1 cell line): 5.10
- Best CI (CAL-120 cell line): 0.85
- Bliss Volume (CAL-120 cell line): 3.31
- HSA volume (CAL-120 cell line): −3.93
- Loewe Volume (CAL-120 cell line): −3.49
- Synergy Score (CAL-120 cell line): 0.11
- Best CI (CAL-148 cell line): 0.27
- Bliss Volume (CAL-148 cell line): 3.34
- HSA volume (CAL-148 cell line): 5.39
- Loewe Volume (CAL-148 cell line): 5.40
- Synergy Score (CAL-148 cell line): 9.33
- Best CI (CAMA-1 cell line): 1.12
- Bliss Volume (CAMA-1 cell line): 5.62
- HSA volume (CAMA-1 cell line): 2.59
- Loewe Volume (CAMA-1 cell line): 3.95
- Synergy Score (CAMA-1 cell line): 4.78
- Best CI (DU-4475 cell line): 1.00
- Bliss Volume (DU-4475 cell line): 7.40
- HSA volume (DU-4475 cell line): 5.68
- Loewe Volume (DU-4475 cell line): 5.80
- Synergy Score (DU-4475 cell line): 4.61
- Best CI (EVSA-T cell line): 1.17
- Bliss Volume (EVSA-T cell line): 6.05
- HSA volume (EVSA-T cell line): 3.16
- Loewe Volume (EVSA-T cell line): 3.21
- Synergy Score (EVSA-T cell line): 4.47
- Best CI (HCC38): 0.72
- Bliss Volume (HCC38): 6.78
- HSA volume (HCC38): 7.48
- Loewe Volume (HCC38): 7.01
- Synergy Score (HCC38): 8.69
- Best CI (HCC70): 0.94
- Bliss Volume (HCC70): 6.93
- HSA volume (HCC70): 6.07
- Loewe Volume (HCC70): 6.54
- Synergy Score (HCC70): 12.18
- Best CI (HCC1143): 0.24
- Bliss Volume (HCC1143): 4.87
- HSA volume (HCC1143): 3.84
- Loewe Volume (HCC1143): 3.62
- Synergy Score (HCC1143): 4.20
- Best CI (HCC1569): 0.84
- Bliss Volume (HCC1569): 7.47
- HSA volume (HCC1569): 5.26
- Loewe Volume (HCC1569): 8.00
- Synergy Score (HCC1569): 4.98
- Best CI (HCC1806): 0.21
- Bliss Volume (HCC1806): 7.25
- HSA volume (HCC1806): 8.26
- Loewe Volume (HCC1806): 8.49
- Synergy Score (HCC1806): 7.73
- Best CI (HCC1937): 0.63
- Bliss Volume (HCC1937): 2.27
- HSA volume (HCC1937): −1.83
- Loewe Volume (HCC1937): 3.06
- Synergy Score (HCC1937): 1.77
- Best CI (HCC1954): 0.92
- Bliss Volume (HCC1954): 1.68
- HSA volume (HCC1954): 0.48
- Loewe Volume (HCC1954): 1.64
- Synergy Score (HCC1954): 4.49
- Best CI (HCC2218): 0.88
- Bliss Volume (HCC2218): −1.34
- HSA volume (HCC2218): −1.12
- Loewe Volume (HCC2218): −1.71
- Synergy Score (HCC2218): 2.66
- Best CI (HDQ-P1): 0.51
- Bliss Volume (HDQ-P1): 3.81
- HSA volume (HDQ-P1): −0.38
- Loewe Volume (HDQ-P1): 3.65
- Synergy Score (HDQ-P1): 1.22
- Best CI (HMC-1-8): 0.78
- Bliss Volume (HMC-1-8): 10.54
- HSA volume (HMC-1-8): 5.78
- Loewe Volume (HMC-1-8): 6.22
- Synergy Score (HMC-1-8): 10.86
- Best CI (JIMT-1): 0.59
- Bliss Volume (JIMT-1): −1.42
- HSA volume (JIMT-1): −0.34
- Loewe Volume (JIMT-1): −1.35
- Synergy Score (JIMT-1): 0.61
- HSA volume (KPL-1): 1.49
